Laboratory results: article PMC7395068, “The evolution of strategies to minimise the risk of human drug-induced liver injury (DILI) in drug discovery and development” (Archives of Toxicology, 2020)
Where two headings read alike, the source gives them in different places.

Assays:
[1] = Plasma free fraction (fu) and unbound Cmax (Cmax,u); format: in vitro ADME, human; conditions: unbound plasma Cmax
Experimental: The prediction of DILI severity was evaluated further using the 3D combined HCI assays using plasma-free fraction. The majority of fu values were obtained from literature, when unavailable in-house prediction was utilised. Unbound plasma Cmax concentrations (Cmax,u) were derived by multiplying total plasma Cmax with the corresponding free fraction (fu) for each compound.

[2] = system: human hepatocytes; conditions: cited from earlier work; for Structural based (HCI): In vitro Assay, ref Xu 2008
[3] = system: THLE or HepG2 cells, isolated mitochondria, BSEP; conditions: cited from earlier work
[4] = system: HepG2 C3A spheroid, BSEP, Glu/Gal in HepG2 cells, bioactivation; conditions: Bayesian modeling; ref Williams et al. 2019; cited from earlier work
[5] = read-out: Human plasma Cmax; total plasma Cmax.tot, median of 9 literature references; cited from earlier work
[6] = plasma free fraction; cited from earlier work
[7] = system: hLiMTs; test: Combined HCI (HCS) and cellular ATP 3D assay in hLiMTs; conditions: for minimal effective concentration / AC50: Homo sapiens; for hLiMTs <25x Avg Cmax ATP / hLiMTs <100x Avg Cmaxu ATP: ATP endpoint; for hLiMTs <25x Avg Cmax ATP / hLiMTs <25x Avg Cmax HCS / hLiMTs <25x Avg Cmax All: cut-off <25x Avg Cmax; for hLiMTs <100x Avg Cmaxu ATP / hLiMTs <100x Avg Cmaxu HCS / hLiMTs <100x Avg Cmaxu All: cut-off <100x Avg Cmaxu; for hLiMTs <25x Avg Cmax HCS / hLiMTs <100x Avg Cmaxu HCS: HCS endpoints; for hLiMTs <25x Avg Cmax All: all endpoints (ATP and HCS); for hLiMTs Cmax max All / hLiMTs Cmax min All / hLiMTs <10 uM All / hLiMTs <100x Avg Cmaxu All: all endpoints; for hLiMTs Cmax max All: Cmax max used; for hLiMTs Cmax min All: Cmax min used; for hLiMTs <10 uM All: cut-off <10 uM
[8] = system: HepaRG spheroids; test: Combined HCI (HCS) and cellular ATP 3D assay in HepaRG spheroids; conditions: for HepaRG <25x Avg Cmax ATP / HepaRG <100x Avg Cmaxu ATP: ATP endpoint; for HepaRG <25x Avg Cmax ATP / HepaRG <25x Avg Cmax HCS / HepaRG <25x Avg Cmax All: cut-off <25x Avg Cmax; for HepaRG <100x Avg Cmaxu ATP / HepaRG <100x Avg Cmaxu HCS / HepaRG <100x Avg Cmaxu All: cut-off <100x Avg Cmaxu; for HepaRG <25x Avg Cmax HCS / HepaRG <100x Avg Cmaxu HCS: HCS endpoints; for HepaRG <25x Avg Cmax All: all endpoints (ATP and HCS); for HepaRG Cmax max All / HepaRG Cmax min All / HepaRG <10 uM All / HepaRG <100x Avg Cmaxu All: all endpoints; for HepaRG Cmax max All: Cmax max used; for HepaRG Cmax min All: Cmax min used; for HepaRG <10 uM All: cut-off <10 uM; for AC50 / minimal effective concentration: Homo sapiens; for HepaRG <25x Avg Cmax ATP / HepaRG <100x Avg Cmaxu ATP / HepaRG <25x Avg Cmax HCS / HepaRG <100x Avg Cmaxu HCS / HepaRG <25x Avg Cmax All / HepaRG Cmax max All / HepaRG Cmax min All / HepaRG <10 uM All / HepaRG <100x Avg Cmaxu All / AC50 / minimal effective concentration: HepaRG
[9] = system: PHH spheroids; conditions: In vitro Assay; ref Vorrink 2018; cited from earlier work
[10] = system: HepG2 cells, primary human hepatocytes; conditions: In vitro Assay; ref Garside 2014; cited from earlier work
[11] = system: isolated mouse liver mitochondria; conditions: In vitro Assay; ref Porceddu 2012; cited from earlier work
[12] = Modeled in vitro assays (cytotoxicity, mitochondrial dysfunction, BSEP), ref Aleo et al. 2019
[13] = Microtissue model structural based (HCI), combined HCS and ATP, MEC < 25 × Cmax.tot cut-off

Row | SMILES | Human plasma Cmax,u [1] [nM] | Structural based (HCI) [2] | Cmax [5] [nM] | fu [6] | minimal effective concentration ([7]; read-out: HCS endpoint MEC) [µM] | hLiMTs <25x Avg Cmax ATP [7] | hLiMTs <100x Avg Cmaxu ATP [7] | hLiMTs <25x Avg Cmax HCS [7] | hLiMTs <100x Avg Cmaxu HCS [7] | hLiMTs <25x Avg Cmax All [7] | hLiMTs Cmax max All [7] | hLiMTs Cmax min All [7] | hLiMTs <10 uM All [7] | hLiMTs <100x Avg Cmaxu All [7] | HepaRG <25x Avg Cmax ATP [8] | HepaRG <100x Avg Cmaxu ATP [8] | HepaRG <25x Avg Cmax HCS [8] | HepaRG <100x Avg Cmaxu HCS [8] | HepaRG <25x Avg Cmax All [8] | HepaRG Cmax max All [8] | also measured
1 | Cc1ccc(N(CC2=NCCN2)c2cccc(O)c2)cc1 [phentolamine] | 34 | -VE | 75 | 0.460 | 87.4 | -ve | -ve | -ve | -ve | -ve | -ve | -ve | -ve | -ve | -ve | -ve | -ve | -ve | -ve | -ve | DILI in vitro assay prediction, Xu (2008) ([2]; Structural based (HCI), human hepatocytes, ref Xu et al. 2008): -VE; Partition Hybrid HRM Score ([3]; In vitro Assay, ref Aleo 2019): -VE; Ro2 Hybrid HRM Score ([3]; In vitro Assay, ref Aleo 2019): -VE; Partition Hybrid HRM Score ≥4, Aleo (2019) [3, 12]: -VE; Partition Hybrid HRM Score ≥8, Aleo (2019) [3, 12]: -VE; Rule of Two hybrid HRM Score ≥3, Aleo (2019) [3, 12]: -VE; Rule of Two hybrid HRM Score ≥8, Aleo (2019) [3, 12]: -VE; Bayesian Machine Learning DILI prediction, Williams (2019) [4]: -VE; DILI prediction hLiMTs (HCS-MEC) [7, 13]: -VE; HepaRG Cmax min All [8]: -ve; HepaRG <10 uM All [8]: -ve; HepaRG <100x Avg Cmaxu All [8]: -ve; AC50 ([8]; read-out: ATP endpoint AC50): 35.2 µM; minimal effective concentration ([8]; read-out: ATP endpoint MEC): 29.3 µM; AC50 ([8]; read-out: HCS endpoint AC50): 63 µM; minimal effective concentration ([8]; read-out: HCS endpoint MEC): 18.1 µM; DILI prediction HepaRG spheroids (HCS-MEC) [8, 13]: -VE
2 | CC/C(=C(\c1ccccc1)c1ccc(OCCN(C)C)cc1)c1ccccc1 [tamoxifen] | 3 | -VE | 320 | 0.010 | 1.97 | +ve | -ve | +ve | -ve | +ve | +ve | +ve | +ve (<10 uM) | -ve | -ve | -ve | +ve | -ve | +ve | +ve | hLiMTs ATP <20 x Cmax [9]: +VE (IC20 < 20 × Cmax.tot cut-off); Cluster 1-6 +VE Assay [10]: +VE; in vitro data EC2<=1x Cmax [11]: +VE; in vitro data EC20<=2uM [11]: +VE; AC50 ([7]; read-out: ATP endpoint AC50): 6.13 µM; minimal effective concentration ([7]; read-out: ATP endpoint MEC): 3.93 µM; AC50 ([7]; read-out: HCS endpoint AC50): 7.49 µM; HepaRG Cmax min All [8]: +ve; HepaRG <10 uM All [8]: +ve (<10 uM); HepaRG <100x Avg Cmaxu All [8]: -ve; AC50 ([8]; read-out: ATP endpoint AC50): 12.7 µM; minimal effective concentration ([8]; read-out: ATP endpoint MEC): 10.8 µM; AC50 ([8]; read-out: HCS endpoint AC50): 16.7 µM; minimal effective concentration ([8]; read-out: HCS endpoint MEC): 3.52 µM
